Data reported in patent US20200140560A1, “PROTEASE BASED SWITCH CHIMERIC ANTIGEN RECEPTORS FOR SAFER CELL IMMUNOTHERAPY” (CELLECTIS, priority 2017, published 2020).
Entries after “also recorded” stand apart in the source; their conditions may differ.

Experiments:
[1] = tested on: anti-CD22 CAR T-cells co-cultured with Raji target cells; experiment: Cytokine profiling of anti-CD22 CAR T-cells co-cultured with Raji target cells in presence of Asunaprevir; format: cell-based, human; settings: various concentrations of ASN, 24 hours co-culture with Raji; FIG. 10
Experimental: FIG. 10: Cytokine quantification after co-culture of anti-CD22 CAR T-cells with target cells as a function of Asunaprevir concentration (see example 6). Data are shown as the mean±SD of duplicates per points.
T-cells were co-cultured with Raji target cells in 12-well culture plates in the presence of various concentrations of ASN for 24 hours. Cells were spun down, and the supernatants were aliquoted and frozen. Cytokine levels in the supernatants were measured with LEGEND plex Human Th Cytokine panel (Biolegend).

T-cells = experiment: T-cell proliferation in presence of Asunaprevir; format: cell-based, human; settings: 100 nM to 1 μM ASN; FIG. 9
Experimental: FIG. 9: Proliferation of T-cells in the presence of increasing concentrations of Asunaprevir (see example 5). The total number of cells at different days cultured in presence of 100 nM, 500 nM or 1000 nM relative to 0 nM ASN is presented. Data are shown as the median of PBMC from 2 donors done in duplicate.
T-cells were cultured in X-Vivo 15 (Lonza) supplemented with 5% human serum hAB (Gemini) and 20 ng/ml IL-2 (Miltenyi) at a density of 1×10^6 cells/ml in presence of various dose (0-1000 nM) of the Asunaprevir protease inhibitor.

[2] = tested on: CD22 positive target cells (Raji) killed by degron CAR T-cells; experiment: Cytolytic properties of C-terminal fusion degron CAR T-cells against luciferase-expressing Raji cells with Asunaprevir; settings: 500 nM Asunaprevir; T-cells:Raji 3:1; 3 consecutive days; FIG. 7
Experimental: Data are normalized using untransduced human primary T-cells.
After 24 h the cells were pelleted, the supernatant was collected for luciferase quantification and the pelleted cells were resuspended in fresh complete X-vivo (supplemented or not with 500 nM Asunaprevir) media and 0.5×10^6 target cells (CD22 positive cells) were added.

[3] = tested on: CD22 positive Raji cells killed by anti-CD22 degron CAR T-cells; experiment: Cytolytic properties of anti-CD22 degron CAR T-cells after wash-out of Asunaprevir; settings: 500 nM Asunaprevir, wash-out 48 h, 24 h or 0 h prior to cytotoxicity assay; Raji 3:1; FIGS. 8A and 8B
Experimental: A fraction of the cells is maintained under 500 nM of Asunaprevir (correspond to the no wash-out point).
After 24 h the cells are pelleted, the supernatant is collected for luciferase quantification.

[4] = tested on: Raji target cells killed by SWOFF anti-CD22 CAR T-cells (TRAC locus integration); experiment: Cytotoxicity of T-cells with SWOFF anti-CD22 CAR integrated at the TRAC locus against luciferase-expressing Raji cells, Asunaprevir dose response; format: cell-based, human
From the text: Data are shown as median with 95% confidence intervals of triplicates per points. N=2, performed in triplicates.
T-cells were then passaged the day prior to the transfection/transduction at 1×10^6 cells/ml in complete media. On the day of transfection/transduction, the cells were de-beaded by magnetic separation (EasySep), washed twice in Cytoporation buffer T (BTX Harvard Apparatus, Holliston, Mass.), and resuspended at a final concentration of 28×10^6 cells/ml in the same solution.
The electroporated cells were then immediately transferred to a 12-well plate containing 1 ml of prewarmed X-vivo-15 serum-free media and incubated for 37° C. for 15 min. The cells were then plated at a concentration of 10,000 cells/well with AAV in a 20 μl total volume of serum-free media (MOI: 1×10^5 vg/cells) in 96-well round bottom plates. […] 100 pL of fresh complete media was then added. Six days after transduction, 0.5×10^6 cells were seeded in a G-Rex 24-well plate (Wilson Wolf) in 5 ml of complete X-vivo-15 media and cultivated for 11 days.
After 24 h, the cells are collected and mixed, and 100 ul of cells was used for luciferase quantification (OneGlo, Promega). The remainder of the cells were pelleted and resuspended in fresh X-vivo 15 media with 5% hAB serum, no 11-2 (supplemented with or without 1-500 nM Asunaprevir), and an additional 0.5×10^6 target cells were added.

[5] = tested on: degron CARs (anti-CD123, anti-CD22) with NS3 protease domain in primary human T-cells; experiment: Surface expression of C-terminal fusion degron CARs in primary human T-cells (flow cytometry, labeled recombinant CD22 or CD123); format: cell-based; settings: 500 nM Asunaprevir for 48 h, FIG. 6
From the text: FIG. 6: Experimental results obtained with T-cells endowed with the CARs of the present invention. 6A: Percentage of CAR positive T-cells (presentation of anti-CD123 CARs at the surface of the transduced cells) in presence or absence of the protease inhibitor Asunaprevir. 6B: Percentage of CAR positive T-cells (presentation of anti-CD22 CARs at the surface of the transduced cells) in presence or absence of the protease inhibitor Asunaprevir). Controls are T-cells endowed with CARs lacking controlled degradation moiety (high presentation of CARs at the surface of the transduced cells). The percentage of CAR positive cells is measured by flow cytometry. Experimental details are provided in example 2.
3-5 days post transduction T-cells were incubated with or without 500 nM Asunaprevir for 48 h. The proportion of T-cells expressing the CAR at their surface was then quantified using labeled recombinant protein CD22 or CD123 targeted by the CAR (LakePharma).

For `C=C[C@@H]1C[C@]1(NC(=O)[C@@H]1C[C@@H](Oc2ncc(OC)c3ccc(Cl)cc23)CN1C(=O)[C@@H](NC(=O)OC(C)(C)C)C(C)(C)C)C(=O)NS(=O)(=O)C1CC1` [Asunaprevir, asunaprevir], the cytokine production [1] was “did not result in notable variations”, the “proliferation of the T-cells” value (T-cells) was “no effects” and the “viability of the T-cells” value (T-cells) was “no effects”. The “CAR cytolytic properties (percentage of CD22 positive target cells killed)” value [2] was “could be negatively controlled; also recorded: reduced”, the “CAR cytolytic properties after wash-out of Asunaprevir” value [3] was “controlled by Asunaprevir in a reversible manner” and the “CAR T-cells cytolytic properties (luciferase signal of target cells)” value ([4]; 1 to 500 nM Asunaprevir, T-cells:Raji 3:1, FIG. 14) was “controlled by addition of Asunaprevir”. The IC50 ([4]; Homo sapiens, Raji, read-out: IC50 of control of CAR T-cells cytolytic properties) was roughly 15 nM, the “CAR presentation at the surface, control CARs lacking the self-excising degron” value ([5]; control CARs) was “did not react” and the “CAR presentation at the surface of the transduced T-cells population” value ([5]; degron CARs anti-CD123 / anti-CD22) was “could be controlled by Asunaprevir”.
